Assay [1] deals with T1, Blg163.
T1 construct: full-length ORF 1341 bp, 447 residues (Met1 to Ser447), GH1; pEASY-E1 vector, His-tag (Ni-NTA) apparently kept; expressed in E. coli BL21(DE3) pLysS; best hits Rhodobacteraceae bacterium NVK46632.1 (homologue)
Description: hydrolysis kinetics, […] substrate. It is filed as biochemical, uncultured bacterium (coral microbial metagenome). The settings on record: citrate buffer, pH 7.0, 30 °C, 5 min.

Assay [2] concerns T1, Blg163. Description: p-nitrophenol release, absorbance at […] nm. It is filed as biochemical, uncultured bacterium (coral microbial metagenome). As to conditions: citrate buffer, pH 7.0, 30 °C, 5 min.

Take `OC[C@H]1O[C@@H](O[C@H]2[C@H](O)[C@@H](O)C(O)O[C@@H]2CO)[C@H](O)[C@@H](O)[C@@H]1O` (stereo partly drawn) [cellobiose]: the Km in assay [1] is 450 µM.

For `OC[C@H]1O[C@@H](OC[C@H]2OC(O)[C@H](O)[C@@H](O)[C@@H]2O)[C@H](O)[C@@H](O)[C@@H]1O` (stereo partly drawn) [gentiobiose], in assay [1], the Km was 720 µM.

Regarding `O=[N+]([O-])c1ccc(O[C@@H]2O[C@H](CO)[C@@H](O)[C@H](O)[C@H]2O)cc1` [p-Nitrophenyl-β-D-glucopyranoside], the Michaelis constant (Km) in assay [2] amounted to 320 µM.

For the origin of these results see paper PMC8700683, “A Novel Neutral and Mesophilic β-Glucosidase from Coral Microorganisms for Efficient Preparation of Gentiooligosaccharides” (Foods, 2021).
